Laboratory results from publication PMC9784495, “Pharmacokinetic Comparison of Ginsenosides between Fermented and Non-Fermented Red Ginseng in Healthy Volunteers” (Pharmaceutics, 2022).
Where “and” joins values, the source holds several entries; their conditions need not be identical. Equal entries are not always repeated. Entries after “also recorded” stand apart in the source; their conditions may differ. Where two headings read alike, the source gives them in different places. Marks after values point to notes of the source that are not given here.

Experiment: Pharmacokinetics of ginsenosides in plasma after a single oral dose of 6 g FRG or RG, crossover clinical trial
Assay type: in vivo, human
Conditions: for AUC24 GMR (90% CI) / AUClast GMR (90% CI) / Cmax GMR (90% CI): geometric mean ratio FRG with respect to RG; for Tmax / AUC / Cmax / AUC(0-t): human, po
Method: This study was designed as a randomized, open-label, single-dose, 2-sequence, 2-period crossover study with a washout period of 2 weeks to compare the pharmacokinetic parameters of ginsenosides in RG and FRG. All subjects underwent a screening test for enrollment in the current study, and the enrolled subjects were randomly allocated into one of two sequence groups: sequence 1, and sequence 2. The subjects in sequence group 1 were administered 6 g of FRG extract with 200 mL water in the first period, and 6 g of RG extract with 200 mL water in the second period, after a washout period of 2 weeks from the first administration. Subjects in sequence group 2 were administered 6 g of RG extract with 200 mL water in the first period, and then 6 g of FRG extract with 200 mL water in the second period, after the same washout period. During each period, for groups 1 and 2, subjects were hospitalized at the clinical trial center of Kyung Hee University Hospital at 5 PM the day before FRG or RG administration. They received a standardized dinner and fasted, except for drinking water, until FRG or RG administration. The following day, subjects were administered FRG or RG at 8 AM according to the assigned sequence group, and were not allowed to eat until 1 PM. All participants were provided lunch and dinner by the study staff. They were discharged at 2 PM the day after dosing with FRG or RG, and visited the clinical trial center at 8 AM the day after discharge. To assess pharmacokinetic parameters, blood samples (9 mL) were serially collected into heparinized tubes just before (0 h) the dose of FRG or RG, and after the dose of FRG or RG at the following time points: 0.5, 1, 2, 3, 4, 5, 6, 7, 8, 10, 12, 14, 24, and 30 h during hospitalization, and 48 h at the outpatient visit. Blood samples were placed into heparinized tubes and centrifuged immediately at 3500× g, 10 min, and −4 °C. Plasma was stored at −70 °C.
CY, CK, PPD, PPT, and Rh2 were analyzed as previously described. An Agilent 1200 series (Agilent Technologies, Santa Clara, CA, USA) or Shimadzu Nexera X2 (Shimadzu, Tokyo, Japan), and Applied Biosystems MDS SCIEX API 4000 Triple Quadrupole Mass Spectrometer (SCIEX, Framingham, MA, USA) with an ESI source in the negative ion mode, were used. Data were analyzed and processed using the Analyst 1.6.2 program (SCIEX, Framingham, MA, USA). Rb1 and F2 were analyzed using Elute UHPLC (Bruker, Billerica, MA, USA) and an EVOQ Elite triple quadrupole mass spectrometer (Bruker, Billerica, MA, USA) with an ESI source in positive ion mode. Data were acquired and processed using the Analyst 1.6.2 program (SCIEX, Framingham, MA, USA), and Bruker Daltonic MS Workstation 8.2.1 (Bruker, Billerica, MA, USA). Ginsenosides standards (Rb1, Rh2 and C-Y) were provided by the Ambo Institute (Daejeon, Republic of Korea). Ginsenosides standards (F2, CK, PPD and PPT) were provided by Ace Enzyme (Kyunggi-do, Republic of Korea). Digoxin, diphenhydramine hydrochloride, formic acid, ammonium acetate, and dimethyl sulfoxide were purchased from Sigma Aldrich (Saint Louis, MO, USA). Methanol, acetonitrile, ethyl acetate, and methyl tertiary butyl ether were purchased from J.T. Baker (Philipsburg, NJ, USA) and purified water for HPLC analysis was obtained using AQUA max® by Younglin (Kyunggi-do, Republic of Korea) water purification system. The final concentrations of the calibration standards were 0.5, 1, 2, 5, 10, 25, and 50 ng/mL, and those of the QC samples were 1.5, 7.5, and 40 ng/mL. The final concentrations of the CK calibration standard were 5, 50, 250, 500, 1000, 1500, and 2500 ng/mL, and those of the QC samples were 15, 1200, and 2000 ng/mL. The human plasma samples were taken out of the −70 °C freezer and thawed at room temperature for the bioanalysis. […]

[1] = plasma, after 6 g FRG oral single dose, median (min, max), read-out: Tmax
[2] = plasma, plasma, after 6 g FRG oral single dose, 0 to 24 h, mean ± SD, read-out: AUC24
[3] = plasma, plasma, after 6 g FRG oral single dose, healthy volunteers, mean ± SD, n = 15, read-out: Cmax
[4] = plasma, plasma, after 6 g FRG oral single dose, mean ± SD, read-out: AUClast
[5] = plasma, plasma, after 6 g RG oral single dose, 0 to 24 h, mean ± SD, read-out: AUC24
[6] = plasma, plasma, after 6 g RG oral single dose, healthy volunteers, mean ± SD, n = 15, read-out: Cmax
[7] = plasma, plasma, after 6 g RG oral single dose, mean ± SD, read-out: AUClast
[8] = plasma, after 6 g RG oral single dose, median (min, max), read-out: Tmax

Structure (SMILES) | AUC24 GMR (90% CI) | AUClast GMR (90% CI) | Cmax GMR (90% CI) | Tmax [1] | AUC [2] | Cmax [3] | AUC(0-t) [4] | AUC [5] | Cmax [6] | AUC(0-t) [7] | Tmax [8] | further results
CC(C)=CCC[C@](C)(O[C@@H]1O[C@H](CO)[C@@H](O)[C@H](O)[C@H]1O)[C@H]1CC[C@]2(C)[C@@H]1[C@H](O)C[C@@H]1[C@@]3(C)CC[C@H](O)C(C)(C)[C@@H]3CC[C@]12C [CK, compound K] | 64.86 fold and 64.86 (51.12, 82.29) * fold | 74.53 fold and 74.53 (59.32, 93.64) * fold | 69.23 fold and 69.23 (55.93, 85.69) * fold | 3.02 h | 8710 ± 2360 ng·h/mL | 1550 ± 394 ng/mL | 9440 ± 2620 ng·h/mL | 158 ± 125 ng·h/mL | 23.8 ± 12.2 ng/mL | 145 ± 106 ng·h/mL |  | Difference of median Tmax, FRG higher than RG (FRG versus RG): 1 h
CC(C)=CCC[C@](C)(O[C@@H]1O[C@H](CO[C@@H]2O[C@H](CO)[C@@H](O)[C@H](O)[C@H]2O)[C@@H](O)[C@H](O)[C@H]1O)[C@H]1CC[C@]2(C)[C@@H]1[C@H](O)C[C@@H]1[C@@]3(C)CC[C@H](O[C@@H]4O[C@H](CO)[C@@H](O)[C@H](O)[C@H]4O[C@@H]4O[C@H](CO)[C@@H](O)[C@H](O)[C@H]4O)C(C)(C)[C@@H]3CC[C@]12C [Rb1] |  |  |  |  |  |  |  | 36.5 ± 25.6 ng·h/mL | 2.33 ± 1.61 ng/mL | 62.4 ± 48.1 ng·h/mL | 8 h | Plasma concentrations (after 6 g FRG): below the LLOQ
CC(C)=CCC[C@](C)(O[C@@H]1O[C@H](CO[C@@H]2OC[C@H](O)[C@H](O)[C@H]2O)[C@@H](O)[C@H](O)[C@H]1O)[C@H]1CC[C@]2(C)[C@@H]1[C@H](O)C[C@@H]1[C@@]3(C)CC[C@H](O)C(C)(C)[C@@H]3CC[C@]12C [CY, compound Y] |  |  |  |  |  |  |  |  |  |  |  | AUC (in vivo, AUC24): 33.4 ± 9.82 ng·h/mL; AUC(0-t) (in vivo, AUClast): 32.5 ± 9.44 ng·h/mL; Cmax (in vivo, Cmax): 8.38 ± 2.22 ng/mL; Tmax (in vivo, Tmax): 3.02 h
CC(C)=CCC[C@](C)(O)[C@H]1CC[C@]2(C)[C@@H]1[C@H](O)C[C@@H]1[C@@]3(C)CC[C@H](O)C(C)(C)[C@@H]3[C@@H](O)C[C@]12C [PPT, protopanaxatriol] | 1.87 fold and 1.87 (1.16, 3.01) ^† fold | 1.76 fold and 1.76 (1.17, 2.65) ^† fold | 2.56 fold and 2.56 (1.83, 3.57) * fold | 6 h | 63.7 ± 42.8 ng·h/mL | 8.92 ± 5.38 ng/mL | 83 ± 59.4 ng·h/mL | 34.1 ± 24.7 ng·h/mL | 3.5 ± 2 ng/mL | 45.7 ± 32.1 ng·h/mL | 19 h | 
CC(C)=CCC[C@](C)(O[C@@H]1O[C@H](CO)[C@@H](O)[C@H](O)[C@H]1O)[C@H]1CC[C@]2(C)[C@@H]1[C@H](O)C[C@@H]1[C@@]3(C)CC[C@H](O[C@@H]4O[C@H](CO)[C@@H](O)[C@H](O)[C@H]4O)C(C)(C)[C@@H]3CC[C@]12C [Ginsenoside F2] |  |  |  | 4.03 h | 142 ± 34.3 ng·h/mL | 14.7 ± 3.58 ng/mL | 168 ± 47.4 ng·h/mL |  |  |  |  | Plasma concentrations (after 6 g RG, F2 except one subject): below the lower limit of quantification; also recorded: below the LLOQ
CC(C)=CCC[C@](C)(O)[C@H]1CC[C@]2(C)[C@@H]1[C@H](O)C[C@@H]1[C@@]3(C)CC[C@H](O[C@@H]4O[C@H](CO)[C@@H](O)[C@H](O)[C@H]4O)C(C)(C)[C@@H]3CC[C@]12C [Rh2] | 18.17 fold and 18.17 (12.4, 26.62) * fold | 18.47 fold and 18.47 (12.74, 26.78) * fold | 20.27 fold and 20.27 (15.13, 27.17) * fold |  |  |  |  |  |  |  |  | Tmax (in vivo, after 6 g FRG oral single dose, median (min, max), read-out: Tmax): 3.02 h; Tmax (in vivo, after 6 g RG oral single dose, median (min, max), read-out: Tmax): 3 h; AUC (in vivo, plasma, after 6 g FRG oral single dose, 0 to 24 h, mean ± SD, read-out: AUC24): 135 ± 44.4 ng·h/mL; Cmax (in vivo, plasma, after 6 g FRG oral single dose, healthy volunteers, mean ± SD, n = 15, read-out: Cmax): 33 ± 11.9 ng/mL; AUC(0-t) (in vivo, plasma, after 6 g FRG oral single dose, mean ± SD, read-out: AUClast): 133 ± 42.6 ng·h/mL; AUC (in vivo, plasma, after 6 g RG oral single dose, 0 to 24 h, mean ± SD, read-out: AUC24): 8.97 ± 5.57 ng·h/mL; Cmax (in vivo, plasma, after 6 g RG oral single dose, healthy volunteers, mean ± SD, n = 15, read-out: Cmax): 1.77 ± 1.17 ng/mL; AUC(0-t) (in vivo, plasma, after 6 g RG oral single dose, mean ± SD, read-out: AUClast): 8.35 ± 4.31 ng·h/mL
CC(C)=CCC[C@](C)(O)[C@H]1CC[C@]2(C)[C@@H]1[C@H](O)C[C@@H]1[C@@]3(C)CC[C@H](O)C(C)(C)[C@@H]3CC[C@]12C [PPD, protopanaxadiol] |  | 4.97 (2.38, 10.34) ^‡ fold |  | 12 h | 48.7 ± 41.1 ng·h/mL | 5.65 ± 4.78 ng/mL | 92.2 ± 96.5 ng·h/mL | 13.9 ± 19.1 ng·h/mL | 1.99 ± 1.62 ng/mL | 20.3 ± 25.1 ng·h/mL | 27.1 h | 
